# Read-outs that look alike come from different tables or passages of the source.
# Tests used:
# [1] = system: Vancomycin-resistant Enterococcus (VRE); test: Modified disc diffusion method, boron compounds; format: cell-based; design: key: + sign indicates that the boron compounds had antimicrobial activity.; − sign indicates that there is no antimicrobial activity; conditions: disc immersed in pulverized compound; 36±1° C., 24 hours
# [2] = system: Methicillin-resistant Staphylococcus aureus (MRSA); test: Modified disc diffusion method, boron compounds; format: cell-based; design: key: + sign indicates that the boron compounds had antimicrobial activity.; − sign indicates that there is no antimicrobial activity; conditions: disc immersed in pulverized compound; 36±1° C., 24 hours
# [3] = system: Escherichia coli; test: Modified disc diffusion method, boron compounds; format: cell-based; design: key: + sign indicates that the boron compounds had antimicrobial activity.; − sign indicates that there is no antimicrobial activity; conditions: disc immersed in pulverized compound; 36±1° C., 24 hours
# [4] = system: Staphylococcus aureus; test: Modified disc diffusion method, boron compounds; format: cell-based; design: key: + sign indicates that the boron compounds had antimicrobial activity.; − sign indicates that there is no antimicrobial activity; conditions: disc immersed in pulverized compound; 36±1° C., 24 hours
# [5] = system: Pseudomonas aeruginosa; test: Modified disc diffusion method, boron compounds; format: cell-based; design: key: + sign indicates that the boron compounds had antimicrobial activity.; − sign indicates that there is no antimicrobial activity; conditions: disc immersed in pulverized compound; 36±1° C., 24 hours
# [6] = system: Candida albicans; test: Modified disc diffusion method, boron compounds; format: cell-based; design: key: + sign indicates that the boron compounds had antimicrobial activity.; − sign indicates that there is no antimicrobial activity; conditions: disc immersed in pulverized compound; 36±1° C., 48 hours
# [7] = system: Candida glabrata; test: Modified disc diffusion method, boron compounds; format: cell-based; design: key: + sign indicates that the boron compounds had antimicrobial activity.; − sign indicates that there is no antimicrobial activity; conditions: disc immersed in pulverized compound; 36±1° C., 48 hours
# [8] = system: Aspergillus spp.; test: Modified disc diffusion method, boron compounds; format: cell-based; design: key: + sign indicates that the boron compounds had antimicrobial activity.; − sign indicates that there is no antimicrobial activity; conditions: disc immersed in pulverized compound; 25±1° C., 72 hours
# [9] = system: Fusarium oxysporum; test: Modified disc diffusion method, boron compounds; format: cell-based; design: key: + sign indicates that the boron compounds had antimicrobial activity.; − sign indicates that there is no antimicrobial activity; conditions: disc immersed in pulverized compound; 25±1° C., 72 hours
# [10] = system: Botrytis cinerea; test: Modified disc diffusion method, boron compounds; format: cell-based; design: key: + sign indicates that the boron compounds had antimicrobial activity.; − sign indicates that there is no antimicrobial activity; conditions: disc immersed in pulverized compound; 25±1° C., 72 hours
# [11] = system: Penicillium spp.; test: Modified disc diffusion method, boron compounds; format: cell-based; design: key: + sign indicates that the boron compounds had antimicrobial activity.; − sign indicates that there is no antimicrobial activity; conditions: disc immersed in pulverized compound; 25±1° C., 72 hours
# [12] = system: Human adenovirus type 5 Adenoid 75 strain; format: cell-based
# [13] = system: poliovirus type 1 Chat strain; format: cell-based
# [14] = system: Herpesvirus hominis; conditions: 0.02% chlorhexidine gluconate, 90-minute exposure at room temperature; cited from earlier work
# [15] = system: poliovirus; conditions: 0.02% chlorhexidine gluconate, 90-minute exposure at room temperature; cited from earlier work
# [16] = system: adenovirus; conditions: 0.02% chlorhexidine gluconate, 90-minute exposure at room temperature; cited from earlier work
# [17] = ingestion of 30 mg twice daily for three weeks; cited from earlier work
# [18] = system: enteric bacteria; conditions: cited from earlier work
# [19] = system: various bacterial strains; conditions: 0.02% chlorhexidine solution, 10-minute exposure; cited from earlier work
# [20] = system: humanrhinovirus, coxsackievirus and mengovirus; conditions: binds with ions of metals such as zinc; cited from earlier work
# [21] = system: P. aeruginosa NCIMB 10548; conditions: cited from earlier work
# [22] = system: E. coli NCIMB 10000; conditions: cited from earlier work
# [23] = system: Pityrosporum ovale; conditions: cited from earlier work
# [24] = system: Saccharomyces cerevisiae yeast; conditions: cited from earlier work
# [25] = 60 minutes, clean medium, 20° C.
molecule,measurement,setting,value
"O.O.O.O.O.[Na+].[Na+].[O-]B1OB2OB([O-])OB(O1)O2 [BP, Borax pentahydrate]",Antimicrobial activity (inhibition zone),[1],+
same,Antimicrobial activity (inhibition zone),[2],+
same,Antimicrobial activity (inhibition zone),[3],+
same,Antimicrobial activity (inhibition zone),[4],+
same,Antimicrobial activity (inhibition zone),[5],+
same,Antimicrobial activity (inhibition zone),[6],+
same,Antimicrobial activity (inhibition zone),[7],+
same,Antimicrobial activity (inhibition zone),[8],+
same,Antimicrobial activity (inhibition zone),[9],+
same,Antimicrobial activity (inhibition zone),[10],+
same,Antimicrobial activity (inhibition zone),[11],+
"N=C(NCCCCCCNC(=N)NC(=N)Nc1ccc(Cl)cc1)NC(=N)Nc1ccc(Cl)cc1.O=C(O)[C@H](O)[C@@H](O)[C@H](O)[C@H](O)CO.O=C(O)[C@H](O)[C@@H](O)[C@H](O)[C@H](O)CO [Chlorhexidine Gluconate, Chlorhexidine gluconate]",Reduction ratio in virus titer,[12],4.0 Logarithmic TCID50 ratio
same,Virus titer with disinfectant,[12],1.5 Logarithmic TCID50
same,reduction in virus titer,[12],at least 4 log
same,Reduction ratio in virus titer,"[12]; 1 minute, clean medium, 20° C.",4.0 Logarithmic TCID50 ratio
same,Virus titer with disinfectant,"[12]; 1 minute, clean medium, 20° C.",1.5 Logarithmic TCID50
same,Reduction ratio in virus titer,[12]; [25],4.0 Logarithmic TCID50 ratio
same,Virus titer with disinfectant,[12]; [25],1.5 Logarithmic TCID50
same,active against virus,"[12]; used directly without being diluted, 20° C., 1 and 60 minute application periods",99.9%
same,Virus titer with disinfectant,[13],2.0 Logarithmic TCID50
same,reduction in virus titer,[13],at least 4 log
same,reduction of virus titration,[14],more than 99%
same,activity against virus,[15],ineffective
same,activity against virus,[16],ineffective
"O.O.O.O.O=BOB1OB(OB=O)OB2OB([O-])OB([O-])OB(O1)O2.[Na+].[Na+] [DOT, Disodium octaborate tetrahydrate]",Antimicrobial activity (inhibition zone),[1],+
same,Antimicrobial activity (inhibition zone),[2],+
same,Antimicrobial activity (inhibition zone),[3],+
same,Antimicrobial activity (inhibition zone),[4],+
same,Antimicrobial activity (inhibition zone),[5],+
same,Antimicrobial activity (inhibition zone),[6],+
same,Antimicrobial activity (inhibition zone),[7],+
same,Antimicrobial activity (inhibition zone),[8],+
same,Antimicrobial activity (inhibition zone),[9],+
same,Antimicrobial activity (inhibition zone),[10],+
same,Antimicrobial activity (inhibition zone),[11],+
"O.O.O.O.O.O.O.O.O.O.[Na+].[Na+].[O-]B1OB2OB([O-])OB(O1)O2 [SB, Sodium Borate]",Antimicrobial activity (inhibition zone),[1],+
same,Antimicrobial activity (inhibition zone),[2],+
same,Antimicrobial activity (inhibition zone),[3],+
same,Antimicrobial activity (inhibition zone),[4],+
same,Antimicrobial activity (inhibition zone),[5],+
same,Antimicrobial activity (inhibition zone),[6],+
same,Antimicrobial activity (inhibition zone),[7],+
same,Antimicrobial activity (inhibition zone),[8],+
same,Antimicrobial activity (inhibition zone),[9],+
same,Antimicrobial activity (inhibition zone),[10],+
same,Antimicrobial activity (inhibition zone),[11],+
"O.O.O.O.[Na+].[O-]B1OO1 [SPT, Sodium perborate tetrahydrate]",Antimicrobial activity (inhibition zone),[1],+
same,Antimicrobial activity (inhibition zone),[2],+
same,Antimicrobial activity (inhibition zone),[3],+
same,Antimicrobial activity (inhibition zone),[4],+
same,Antimicrobial activity (inhibition zone),[5],+
same,Antimicrobial activity (inhibition zone),[6],+
same,Antimicrobial activity (inhibition zone),[7],+
same,Antimicrobial activity (inhibition zone),[8],+
same,Antimicrobial activity (inhibition zone),[9],+
same,Antimicrobial activity (inhibition zone),[10],+
same,Antimicrobial activity (inhibition zone),[11],+
"O=BOB(O)OB(O)OB=O [borax, borax (Na2B4O7 10 H2O)]",effect on rheumatism,[17],substantially alleviated rheumatism
OB(O)O [boric acid],antibacterial activity,[18],has antibacterial activity
[H]/N=C(\N/C(=N/[H])NCCCCCCNC(=N)NC(=N)Nc1ccc(Cl)cc1)Nc1ccc(Cl)cc1 [chlorhexidine],inhibition of microorganisms,[19],4 log
CC(C)c1cccc(=O)c(O)c1 [hinokitiol],inhibition of virus proliferation,[20],inhibited proliferation
Zinc borate [ZB],Antimicrobial activity (inhibition zone),[1],+
same,Antimicrobial activity (inhibition zone),[2],+
same,Antimicrobial activity (inhibition zone),[3],+
same,Antimicrobial activity (inhibition zone),[4],+
same,Antimicrobial activity (inhibition zone),[5],+
same,Antimicrobial activity (inhibition zone),[6],+
same,Antimicrobial activity (inhibition zone),[7],+
same,Antimicrobial activity (inhibition zone),[8],+
same,Antimicrobial activity (inhibition zone),[9],+
same,Antimicrobial activity (inhibition zone),[10],+
same,Antimicrobial activity (inhibition zone),[11],+
Zinc pyrithione,Reduction ratio in virus titer,[12],4.0 Logarithmic TCID50 ratio
same,Virus titer with disinfectant,[12],1.0 Logarithmic TCID50
same,active against virus,[12],99.9%
same,reduction in virus titer,[12],at least 4 log
same,Reduction ratio in virus titer,[13],4.5 Logarithmic TCID50 ratio
same,Virus titer with disinfectant,[13],1.5 Logarithmic TCID50
same,reduction in virus titer,[13],at least 4 log
same,MIC value,[21],13 µg/mL
same,MIC value,[22],4.5 µg/mL
same,antifungal activity,[23],has antifungal activity
same,antiyeast activity,[24],has antiyeast activity

# From US20180244895A1, “ANTIMICROBIAL AND ANTIVIRAL COMPOSITE POLYMER SURFACES” (YEDITEPE UNIVERSITESI, priority 2015, published 2018)
